Results reported in publication PMC4255672 (2014).

Tested on: BPA aptamer (DNA, aptamer) CCGCCGTTGGTGTGGTGGGCCTAGGGCCGGCGGCGCACAGCTGTTATAGACGTCTCCAGC
Assay: microscale thermophoresis
Settings: 25 °C; 5 nM aptamer; BPA 310 pM to 10 μM; Hill1 fit; buffer not stated

With `CC(C)(c1ccc(O)cc1)c1ccc(O)cc1` the Kd was ~ 100 nM.
